US12077503B2, “Substituted cyclic amides and their use as herbicides” (FMC CORPORATION, priority 2015, dated 2024)

Legend:
Type in all cases: in vivo
[1] = test system: Kochia (Kochia scoparia); assay: Test A postemergence; settings: postemergence; for Kochia plant response rating: 125 g ai/ha, visual injury rating on 0 to 100 scale (0 no effect, 100 complete control), approx. 10 d; for Plant response rating, Kochia: 500 g ai/ha, 0 to 100 scale, 0 no effect, 100 complete control
Procedure, shortened: (§1)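 Compounds were formulated in a non-phytotoxic solvent mixture with surfactant and applied as a preemergence directed soil spray after seeding, or sprayed postemergence over plants 2 to 10 cm tall at the one- to two-leaf stage. Evaluation after about 10 d compared treated with untreated controls, using a scale from 0 (no effect) to 100 (complete control).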

[2] = test system: giant foxtail (Setaria faberii); assay: Test A postemergence; settings: postemergence; for Foxtail, Giant plant response rating: 125 g ai/ha, visual injury rating on 0 to 100 scale (0 no effect, 100 complete control), approx. 10 d; for Plant response rating, Foxtail, Giant: 500 g ai/ha, 0 to 100 scale, 0 no effect, 100 complete control
Procedure, shortened: as §1

[3] = test system: pigweed (Amaranthus retroflexus); assay: Test A postemergence; settings: postemergence; for Pigweed plant response rating: 125 g ai/ha, visual injury rating on 0 to 100 scale (0 no effect, 100 complete control), approx. 10 d; for Plant response rating, Pigweed: 500 g ai/ha, 0 to 100 scale, 0 no effect, 100 complete control
Procedure, shortened: as §1

[4] = test system: ryegrass, Italian (Italian ryegrass, Lolium multiflorum); assay: Test A postemergence; settings: postemergence; for Ryegrass, Italian plant response rating: 125 g ai/ha, visual injury rating on 0 to 100 scale (0 no effect, 100 complete control), approx. 10 d; for Plant response rating, Ryegrass, Italian: 500 g ai/ha, 0 to 100 scale, 0 no effect, 100 complete control
Procedure, shortened: as §1

[5] = test system: wheat (Triticum aestivum); assay: Test A postemergence; settings: postemergence; for Wheat plant response rating: 125 g ai/ha, visual injury rating on 0 to 100 scale (0 no effect, 100 complete control), approx. 10 d; for Plant response rating, Wheat: 500 g ai/ha, 0 to 100 scale, 0 no effect, 100 complete control
Procedure, shortened: as §1

[6] = test system: Galium (catchweed bedstraw, Galium aparine); assay: Test A postemergence; settings: postemergence; for Galium plant response rating: 125 g ai/ha, visual injury rating on 0 to 100 scale (0 no effect, 100 complete control), approx. 10 d; for Plant response rating, Galium: 500 g ai/ha, 0 to 100 scale, 0 no effect, 100 complete control
Procedure, shortened: as §1

[7] = test system: corn (Zea mays); assay: Test A postemergence; settings: postemergence; for Corn plant response rating: 125 g ai/ha, visual injury rating on 0 to 100 scale (0 no effect, 100 complete control), approx. 10 d; for Plant response rating, Corn: 500 g ai/ha, 0 to 100 scale, 0 no effect, 100 complete control
Procedure, shortened: as §1

[8] = test system: blackgrass (Alopecurus myosuroides); assay: Test A postemergence; settings: postemergence; for Blackgrass plant response rating: 125 g ai/ha, visual injury rating on 0 to 100 scale (0 no effect, 100 complete control), approx. 10 d; for Plant response rating, Blackgrass: 500 g ai/ha, 0 to 100 scale, 0 no effect, 100 complete control
Procedure, shortened: as §1

[9] = test system: ragweed (common ragweed, Ambrosia elatior); assay: Test A postemergence; settings: postemergence; for Ragweed plant response rating: 125 g ai/ha, visual injury rating on 0 to 100 scale (0 no effect, 100 complete control), approx. 10 d; for Plant response rating, Ragweed: 500 g ai/ha, 0 to 100 scale, 0 no effect, 100 complete control
Procedure, shortened: as §1

[10] = test system: barnyardgrass (Echinochloa crus-galli); assay: Test A postemergence; settings: postemergence; for Barnyardgrass plant response rating: 125 g ai/ha, visual injury rating on 0 to 100 scale (0 no effect, 100 complete control), approx. 10 d; for Plant response rating, Barnyardgrass: 500 g ai/ha, 0 to 100 scale, 0 no effect, 100 complete control
Procedure, shortened: as §1

[11] = test system: Kochia (Kochia scoparia); assay: Test A preemergence; settings: for Plant response rating, Kochia: 125 g ai/ha, preemergence, 0 to 100 scale (0 no effect, 100 complete control); for Kochia plant response rating (0 to 100 scale, 0 is no effect, 100 is complete control): Preemergence, 500 g ai/ha, visual injury approx. 10 d
Procedure, shortened: as §1

[12] = test system: giant foxtail (Setaria faberii); assay: Test A preemergence; settings: for Plant response rating, Foxtail, Giant: 125 g ai/ha, preemergence, 0 to 100 scale (0 no effect, 100 complete control); for Foxtail, Giant plant response rating (0 to 100 scale, 0 is no effect, 100 is complete control): Preemergence, 500 g ai/ha, visual injury approx. 10 d
Procedure, shortened: as §1

[13] = test system: pigweed (Amaranthus retroflexus); assay: Test A preemergence; settings: for Plant response rating, Pigweed: 125 g ai/ha, preemergence, 0 to 100 scale (0 no effect, 100 complete control); for Pigweed plant response rating (0 to 100 scale, 0 is no effect, 100 is complete control): Preemergence, 500 g ai/ha, visual injury approx. 10 d
[14] = test system: ryegrass, Italian (Italian ryegrass, Lolium multiflorum); assay: Test A preemergence; settings: for Plant response rating, Ryegrass, Italian: 125 g ai/ha, preemergence, 0 to 100 scale (0 no effect, 100 complete control); for Ryegrass, Italian plant response rating (0 to 100 scale, 0 is no effect, 100 is complete control): Preemergence, 500 g ai/ha, visual injury approx. 10 d
Procedure, shortened: as §1

[15] = test system: ragweed (common ragweed, Ambrosia elatior); assay: Test A preemergence; settings: for Plant response rating, Ragweed: 125 g ai/ha, preemergence, 0 to 100 scale (0 no effect, 100 complete control); for Ragweed plant response rating (0 to 100 scale, 0 is no effect, 100 is complete control): Preemergence, 500 g ai/ha, visual injury approx. 10 d
Procedure, shortened: as §1

[16] = test system: barnyardgrass (Echinochloa crus-galli); assay: Test A preemergence; settings: for Plant response rating, Barnyardgrass: 125 g ai/ha, preemergence, 0 to 100 scale (0 no effect, 100 complete control); for Barnyardgrass plant response rating (0 to 100 scale, 0 is no effect, 100 is complete control): Preemergence, 500 g ai/ha, visual injury approx. 10 d
Procedure, shortened: as §1

[17] = test system: rice (Oryra sativa); assay: Test B flooded paddy test; settings: Flood, 0 to 100 scale where 0 is no effect and 100 is complete control, 13 to 15 d
Procedure, shortened: (§2)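 Evaluation by eye, against controls, occurred 13–15 d post-treatment in a greenhouse, using a 0 (no effect) to 100 (complete control) scale. Application was into the paddy water, 3 cm deep over the soil, on 2-leaf plants.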

[18] = test system: ducksalad (Heteranthera limosa); assay: Test B flooded paddy test; settings: Flood, 0 to 100 scale where 0 is no effect and 100 is complete control, 13 to 15 d
Procedure, shortened: as §2

[19] = test system: sedge, umbrella (small-flower umbrella sedge, Cyperus difformis); assay: Test B flooded paddy test; settings: Flood, 0 to 100 scale where 0 is no effect and 100 is complete control, 13 to 15 d
Procedure, shortened: as §2

[20] = test system: barnyardgrass (Echinochloa crus-galli); assay: Test B flooded paddy test; settings: Flood, 0 to 100 scale where 0 is no effect and 100 is complete control, 13 to 15 d
Procedure, shortened: as §2

SMILES: O=C1NCC(c2cccc(OC(F)F)c2)C1C(=O)Nc1ccccc1OC(F)F (stereo not drawn) [Compound 427]
- Kochia plant response rating [1]: 0
- Plant response rating, Kochia [1]: 20
- Foxtail, Giant plant response rating [2]: 50
- Plant response rating, Foxtail, Giant [2]: 80
- Pigweed plant response rating [3]: 0
- Plant response rating, Pigweed [3]: 0
- Ryegrass, Italian plant response rating [4]: 0
- Plant response rating, Ryegrass, Italian [4]: 20
- Wheat plant response rating [5]: 0
- Plant response rating, Wheat [5]: 20
- Galium plant response rating [6]: 40
- Plant response rating, Galium [6]: 50
- Corn plant response rating [7]: 0
- Plant response rating, Corn [7]: 20
- Blackgrass plant response rating [8]: 20
- Plant response rating, Blackgrass [8]: 40
- Ragweed plant response rating [9]: 0
- Plant response rating, Ragweed [9]: 20
- Barnyardgrass plant response rating [10]: 60
- Plant response rating, Barnyardgrass [10]: 80
- Plant response rating, Kochia [11]: 30
- Kochia plant response rating (0 to 100 scale, 0 is no effect, 100 is complete control) [11]: 80
- Plant response rating, Foxtail, Giant [12]: 90
- Foxtail, Giant plant response rating (0 to 100 scale, 0 is no effect, 100 is complete control) [12]: 90
- Plant response rating, Pigweed [13]: 0
- Pigweed plant response rating (0 to 100 scale, 0 is no effect, 100 is complete control) [13]: 40
- Plant response rating, Ryegrass, Italian [14]: 0
- Ryegrass, Italian plant response rating (0 to 100 scale, 0 is no effect, 100 is complete control) [14]: 30
- Plant response rating, Ragweed [15]: 0
- Ragweed plant response rating (0 to 100 scale, 0 is no effect, 100 is complete control) [15]: 40
- Plant response rating, Barnyardgrass [16]: 40
- Barnyardgrass plant response rating (0 to 100 scale, 0 is no effect, 100 is complete control) [16]: 90
- Plant response rating, Rice ([17]; 500 g ai/ha): 0
- Plant response rating, Ducksalad ([18]; 500 g ai/ha): 100
- Plant response rating, Sedge, Umbrella ([19]; 500 g ai/ha): 0
- Plant response rating, Barnyardgrass ([20]; 500 g ai/ha): 40

SMILES: CC(=O)Oc1cccc(C2CNC(=O)C2C(=O)Nc2cccc(F)c2F)c1 (stereo not drawn) [Compound 432]
- Kochia plant response rating [1]: 0
- Plant response rating, Kochia [1]: 0
- Foxtail, Giant plant response rating [2]: 40
- Plant response rating, Foxtail, Giant [2]: 30
- Pigweed plant response rating [3]: 0
- Plant response rating, Pigweed [3]: 0
- Ryegrass, Italian plant response rating [4]: 0
- Plant response rating, Ryegrass, Italian [4]: 20
- Wheat plant response rating [5]: 0
- Plant response rating, Wheat [5]: 0
- Galium plant response rating [6]: 0
- Plant response rating, Galium [6]: 0
- Corn plant response rating [7]: 0
- Plant response rating, Corn [7]: 0
- Blackgrass plant response rating [8]: 0
- Plant response rating, Blackgrass [8]: 0
- Ragweed plant response rating [9]: 0
- Plant response rating, Ragweed [9]: 0
- Barnyardgrass plant response rating [10]: 20
- Plant response rating, Barnyardgrass [10]: 30
- Plant response rating, Kochia [11]: 0
- Kochia plant response rating (0 to 100 scale, 0 is no effect, 100 is complete control) [11]: 0
- Plant response rating, Foxtail, Giant [12]: 0
- Foxtail, Giant plant response rating (0 to 100 scale, 0 is no effect, 100 is complete control) [12]: 0
- Plant response rating, Pigweed [13]: 0
- Pigweed plant response rating (0 to 100 scale, 0 is no effect, 100 is complete control) [13]: 0
- Plant response rating, Ryegrass, Italian [14]: 0
- Ryegrass, Italian plant response rating (0 to 100 scale, 0 is no effect, 100 is complete control) [14]: 0
- Plant response rating, Ragweed [15]: 0
- Ragweed plant response rating (0 to 100 scale, 0 is no effect, 100 is complete control) [15]: 0
- Plant response rating, Barnyardgrass [16]: 30
- Barnyardgrass plant response rating (0 to 100 scale, 0 is no effect, 100 is complete control) [16]: 40
- Plant response rating, Rice ([17]; 250 g ai/ha): 15
- Plant response rating, Ducksalad ([18]; 250 g ai/ha): 0
- Plant response rating, Sedge, Umbrella ([19]; 250 g ai/ha): 0
- Plant response rating, Barnyardgrass ([20]; 250 g ai/ha): 20
